Where two headings read alike, the source gives them in different places. Where a SMILES comes first, the peptide text is derived from it.

Test [1] has as its target T1, rat apelin receptor-EGFP (Rattus norvegicus, UniProt Q9JHG3).
T1 construct: expressed in transfected cells
T1 sequence (Q9JHG3 1-377): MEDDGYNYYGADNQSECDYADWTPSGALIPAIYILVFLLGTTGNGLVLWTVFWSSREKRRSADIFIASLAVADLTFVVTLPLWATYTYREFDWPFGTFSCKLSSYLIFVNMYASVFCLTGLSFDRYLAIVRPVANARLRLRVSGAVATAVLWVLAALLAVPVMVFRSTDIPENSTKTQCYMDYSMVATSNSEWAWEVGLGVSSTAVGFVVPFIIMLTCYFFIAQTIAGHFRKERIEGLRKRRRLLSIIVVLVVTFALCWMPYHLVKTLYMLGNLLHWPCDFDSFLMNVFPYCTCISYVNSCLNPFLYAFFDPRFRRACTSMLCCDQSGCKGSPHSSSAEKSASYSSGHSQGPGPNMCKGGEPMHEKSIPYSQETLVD
Put plainly: [125I]pE13F radioligand binding on CHO membrane preparations. As for the experimental part:
Crude membrane preparation from CHO stably expressing the wild-type rat apelin receptor-EGFP, were prepared as previously described (39). […] The reaction was stopped by adding ice-cold binding buffer and filtered through glass microfiber filters (Whatman GF/C filters). Radioactivity was counted in Wizard 1470 Wallac gamma counter (Perkin Elmer, Turku, Finland).

For test [2], the target named is T1, rat apelin receptor-EGFP. Put plainly: Inhibition of forskolin-induced cAMP production (HTRF). The class given is cell-based. (In general: cAMP levels reflect the balance of adenylyl cyclase and phosphodiesterase activity.)
Method: cAMP was quantified using the cAMP dynamic 2 assay kit (Cisbio Bioassays, Codolet, France) based on homogeneous time-resolved fluorescence (HTRF) technology. The stimulation was done in the stimulation buffer (HBSS, 5 mM Hepes, 0.1% BSA stabilizer, 1 mM IBMX, pH 7.4). Briefly, 2,000/well CHO cells stably expressing the rat apelin receptor-EGFP were added into 384-well plate and stimulated with 10^−6 M forskolin (FSK) and increasing concentrations (10^−14 to 10^−4 M) of apelins or its analogs for 30 min at room temperature. Cells were then lyzed, and cAMP levels were determined following manufacturer instructions.
The target in test [3] is T1, rat apelin receptor-EGFP. Put plainly: Apelin receptor-EGFP internalization, confocal microscopy. The format is cell-based. Conditions: 1 μM, 20 min. The method, then: The internalization assay was performed as described previously with CHO cells stably expressing the rat apelin receptor-EGFP (43). […] Cells were then mounted in Aquapolymount (Polysciences, Warrington, Pa., USA) for confocal microscopic analysis (Sec (42) for details).

Test [4] relates to rat aortic rings precontracted by noradrenaline (NA). Put plainly: Isometric tension of aortic rings precontracted by noradrenaline. The following applies: precontraction 3×10^−6 M NA. As for the experimental part: The experiments were performed in rat aortic rings as previously described (39). […] The aortas were cleaned of excess connective tissue and fat and cut into rings of approximately 3-4 mm in length. Special care was taken to avoid damaging the luminal surface of the endothelium. […] One end of the aortic ring was connected to a tissue holder and the other to an isometric force transducer (EMKA Technologies, Paris, France). […] During equilibration period, the rings were washed every 30 min. Then, a first relaxation to acetylcholine (Ach, 10^−4 mol/L) was implemented to check the integrity or the absence of the endothelium in rings precontracted with NA (3×10^−8 mol/L). After rinsing with PSS to baseline tension, rings were equilibrated for 90 min. […] Each concentration of the drug was added at the maximal effect of the precedent concentration. The concentration-response curves were continuously recorded on a PC by means of IOX v 2.4 (EMKA Technologies, Paris) for further analysis (Datanalyst v2.1, EMKA Technologies, Paris).

Where [5] appears, read: Table 3, read-out: Ki nM ± SEM (15.11.2013).
Where [6] appears, read: Table 3, read-out: IC50 cAMP inhibition.
Where [7] appears, read: competition with [125I]pE13F, CHO membranes, read-out: Ki for the apelin receptor (affinity).
Setting [8] is: 10^−6 M forskolin, read-out: IC50 inhibition of forskolin-induced cAMP production.

As a reminder, the Ki is the dissociation constant of the complex between target and ligand, obtained from inhibition or displacement. As a reminder, the IC50 is the concentration at which inhibition is half-maximal. As to `CCCCCCCCCCCCCCCC(=O)NCCCC[C@H](N)C(=O)N[C@@H](CCCCN)C(=O)N[C@@H](Cc1ccccc1)C(=O)N[C@@H](CCCNC(=N)N)C(=O)N[C@@H](CCCNC(=N)N)C(=O)N[C@@H](CCC(N)=O)C(=O)N[C@@H](CCCNC(=N)N)C(=O)N1CCC[C@H]1C(=O)N[C@@H](CCCNC(=N)N)C(=O)N[C@@H](CC(C)C)C(=O)N[C@@H](CO)C(=O)N[C@@H](Cc1c[nH]cn1)C(=O)N[C@@H](CCCCN)C(=O)NCC(=O)N1CCC[C@H]1C(=O)N[C@@H](CCSC)C(=O)N1CCC[C@H]1C(=O)N[C@@H](Cc1ccccc1)C(=O)O` [JFM V-0210/2], the Ki on rat apelin receptor-EGFP [1] (setting [5]) was 1.33 ± 0.15 nM. Also, the IC50 on rat apelin receptor-EGFP [2] (setting [6]) is 1.4 ± 0.5 nM.

In the case of `CSCC[C@H](NC(=O)[C@@H]1CCCN1C(=O)CNC(=O)[C@H](CCCCN)NC(=O)C(C)(C)NC(=O)[C@H](CO)NC(=O)[C@H](CC(C)C)NC(=O)[C@H](CCCNC(=N)N)NC(=O)[C@@H]1CCCN1C(=O)[C@H](CCCNC(=N)N)NC(=O)[C@@H]1CCC(=O)N1)C(=O)N1CCC[C@H]1C(=O)N[C@@H](Cc1ccccc1)C(=O)O` [pE13F(Aib^7)] (HELM PEPTIDE1{[Glp].R.P.R.L.S.[Aib].K.G.P.M.P.F}$$$$V2.0; C-terminus assumed), the Ki on rat apelin receptor-EGFP [1] (setting [7]) came out at 2.6 ± 2.3 nM. The half-inhibitory concentration (IC50) at rat apelin receptor-EGFP [2] (setting [8]) came to 1.2 ± 0.6 nM. In addition, on rat apelin receptor-EGFP [3], the “induction of apelin receptor internalization” value (shortened to “induction”) was “potent inducers of apelin receptor internalization”.

Regarding `CSCC[C@H](NC(=O)[C@@H]1CCCN1C(=O)CNC(=O)[C@H](CCCCN)NC(=O)[C@H](Cc1c[nH]cn1)NC(=O)[C@H](CO)NC(=O)[C@H](CC(C)C)NC(=O)[C@H](CCCNC(=N)N)NC(=O)[C@@H]1CCCN1C(=O)[C@H](CCCNC(=N)N)NC(=O)[C@@H]1CCC(=O)N1)C(=O)N1CCC[C@H]1C(=O)N[C@@H](Cc1ccc(Br)cc1)C(=O)O` [pE13(4Br-Phe^13)], at rat apelin receptor-EGFP [1] (setting [7]), the Ki was found to be 0.06 ± 0.02 nM. Moreover, the IC50 at rat apelin receptor-EGFP [2] (setting [8]) was determined as 0.1 ± 0.05 nM. Further, the “induction” value on rat apelin receptor-EGFP [3] is given as “potent inducers of apelin receptor internalization”.

For `CSCC[C@H](NC(=O)[C@@H]1CCCN1C(=O)CNC(=O)[C@H](CCCCN)NC(=O)[C@H](Cc1c[nH]cn1)NC(=O)[C@H](CO)NC(=O)[C@H](CC(C)C)NC(=O)[C@H](CCCNC(=N)N)NC(=O)[C@@H]1CCCN1C(=O)[C@H](CCCNC(=N)N)NC(C)=O)C(=O)N1CCC[C@H]1C(=O)N[C@@H](Cc1ccccc1)C(=O)O` [Ac—R12F], the Ki at rat apelin receptor-EGFP [1] (setting [7]) worked out at 1.4 ± 0.7 nM. Moreover, the IC50 on rat apelin receptor-EGFP [2] (setting [8]) came out at 2.4 ± 1.4 nM. On rat apelin receptor-EGFP [3], the “induction” value was “potent inducers of apelin receptor internalization”.

Turning to `CSCC[C@H](NC(=O)[C@@H]1CCCN1C(=O)CNC(=O)[C@H](CCCCN)NC(=O)[C@H](Cc1c[nH]cn1)NC(=O)[C@H](CO)NC(=O)[C@H](CC(C)C)NC(=O)[C@H](CCCNC(=N)N)NC(=O)[C@@H]1CCCN1C(=O)[C@H](CCCNC(=N)N)NC(=O)[C@H](CCC(N)=O)NC(=O)[C@H](CCCNC(=N)N)NC(=O)[C@H](CCCNC(=N)N)NC(=O)[C@H](Cc1ccccc1)NC(=O)[C@H](CCCCN)NC(=O)[C@@H](N)CCCCNC(=O)CCC(F)(F)C(F)(F)C(F)(F)C(F)(F)C(F)(F)C(F)(F)C(F)(F)C(F)(F)F)C(=O)N1CCC[C@H]1C(=O)N[C@@H](Cc1ccccc1)C(=O)O` [JFM V-0210/1], the Ki on rat apelin receptor-EGFP [1] (setting [5]) was 0.18 ± 0.023 nM. Moreover, at rat apelin receptor-EGFP [2] (setting [6]), the IC50 is 3.8 ± 1 nM.

`CCCCCCCCCCCCCCCC(=O)NCCCC[C@H](N)C(=O)N[C@@H](Cc1ccccc1)C(=O)N[C@@H](CCCNC(=N)N)C(=O)N[C@@H](CCCNC(=N)N)C(=O)N[C@@H](CCC(N)=O)C(=O)N[C@@H](CCCNC(=N)N)C(=O)N1CCC[C@H]1C(=O)N[C@@H](CCCNC(=N)N)C(=O)N[C@@H](CC(C)C)C(=O)N[C@@H](CO)C(=O)N[C@@H](Cc1c[nH]cn1)C(=O)N[C@@H](CCCCN)C(=O)NCC(=O)N1CCC[C@H]1C(=O)N[C@@H](CCSC)C(=O)N1CCC[C@H]1C(=O)N[C@@H](Cc1ccccc1)C(=O)O` [JFM V-0220A]: on rat apelin receptor-EGFP [1] (setting [5]), the Ki was 1.43 ± 0.74 nM. For the same compound, the IC50 at rat apelin receptor-EGFP [2] (setting [6]) worked out at 2 ± 0.75 nM.

With `CCCC[C@H](NC(=O)[C@@H]1CCCN1C(=O)CNC(=O)[C@H](CCCCN)NC(=O)[C@H](Cc1c[nH]cn1)NC(=O)[C@H](CO)NC(=O)[C@H](CC(C)C)NC(=O)[C@H](CCCNC(=N)N)NC(=O)[C@@H]1CCCN1C(=O)[C@H](CCCNC(=N)N)NC(=O)[C@@H]1CCC(=O)N1)C(=O)N1CCC[C@H]1C(=O)N[C@@H](Cc1ccccc1)C(=O)O` [pE13F(Nle^11)], the “induction” value at rat apelin receptor-EGFP [3] is given as “potent inducers of apelin receptor internalization”.

Regarding `CSCC[C@H](NC(=O)[C@@H]1CCCN1C(=O)CNC(=O)[C@H](CCCCN)NC(=O)[C@H](Cc1c[nH]cn1)NC(=O)[C@H](CO)NC(=O)[C@H](CC(C)C)NC(=O)[C@H](CCCNC(=N)N)NC(=O)[C@@H]1CCCN1C(=O)[C@H](CCCNC(=N)N)NC(=O)[C@@H]1CCC(=O)N1)C(=O)N1CCC[C@H]1C(=O)N[C@@H](Cc1ccccc1)C(=O)O` [pE13F, reference compound], in test [4], the maximal relaxant effect is 62±6% and the “potency (pD2) of relaxation” value is recorded as 8.00±0.59.

With `CSCC[C@H](NC(=O)[C@@H]1CCCN1C(=O)[C@@H](C)NC(=O)[C@H](CCCCN)NC(=O)[C@H](Cc1c[nH]cn1)NC(=O)[C@H](CO)NC(=O)[C@H](CC(C)C)NC(=O)[C@H](CCCNC(=N)N)NC(=O)[C@@H]1CCCN1C(=O)[C@H](CCCNC(=N)N)NC(=O)[C@@H]1CCC(=O)N1)C(=O)N1CCC[C@H]1C(=O)N[C@@H](Cc1ccccc1)C(=O)O` [pE13F(D-Ala^9)] (HELM PEPTIDE1{[Glp].R.P.R.L.S.H.K.[dA].P.M.P.F}$$$$V2.0; C-terminus assumed), the Ki on rat apelin receptor-EGFP [1] (setting [7]) was found to be 4.3 ± 1.8 nM. On rat apelin receptor-EGFP [2] (setting [8]), the IC50 turned out to be 43 ± 12 nM. Further, the “induction” value at rat apelin receptor-EGFP [3] is “potent inducers of apelin receptor internalization”.

In the case of `CCCC[C@H](NC(=O)[C@@H]1CCCN1C(=O)[C@@H](C)NC(=O)[C@H](CCCCN)NC(=O)C(C)(C)NC(=O)[C@H](CO)NC(=O)[C@@H](CC(C)C)NC(=O)[C@H](CCCNC(=N)N)NC(=O)[C@@H]1CCCN1C(=O)[C@H](CCCNC(=N)N)NC(=O)[C@@H](CCC(N)=O)NC(=O)[C@H](CCCNC(=N)N)NC(=O)[C@H](CCCNC(=N)N)NC(=O)[C@H](Cc1ccccc1)NC(=O)[C@H](CCCCN)NC(C)=O)C(=O)N1CCC[C@H]1C(=O)N[C@@H](Cc1ccc(Br)cc1)C(=O)O` [P95, N-Acetyl-Lys-Phe-Arg-Arg-D-Gln-Arg-Pro-Arg-D-Leu-Ser-Aib-Lys-D-Ala-Pro-Nle-Pro-(4-Br)Phe] (HELM PEPTIDE1{[ac].K.F.R.R.[dQ].R.P.R.[dL].S.[Aib].K.[dA].P.[Nle].P.[O=C(O)[C@H](Cc1ccc(Br)cc1)N[*:1]]}$$$$V2.0; C-terminus assumed), the “affinity improved as compared to K17F by a factor” value at rat apelin receptor-EGFP [1] worked out at 10. The IC50 on rat apelin receptor-EGFP [1] (Table 1) turned out to be 0.03 ± 0.02 nM; on rat apelin receptor-EGFP [2] (Table 1, read-out: cAMP production IC50), 0.34 ± 0.36 nM. The Ki on rat apelin receptor-EGFP [1] (setting [7]) was found to be 0.03 nM.

Turning to `CSCC[C@H](NC(=O)[C@@H]1CCCN1C(=O)CNC(=O)[C@H](CCCCN)NC(=O)[C@H](Cc1c[nH]cn1)NC(=O)[C@H](CO)NC(=O)[C@H](CC(C)C)NC(=O)[C@H](CCCNC(=N)N)NC(=O)[C@@H]1CCCN1C(=O)[C@H](CCCNC(=N)N)NC(=O)[C@H](CCC(N)=O)NC(=O)[C@H](CCCNC(=N)N)NC(=O)[C@H](CCCNC(=N)N)NC(=O)[C@H](Cc1ccccc1)NC(=O)[C@@H](N)CCCCNC(=O)CCC(F)(F)C(F)(F)C(F)(F)C(F)(F)C(F)(F)C(F)(F)C(F)(F)C(F)(F)F)C(=O)N1CCC[C@H]1C(=O)N[C@@H](Cc1ccccc1)C(=O)O` [JFM V-0220B], the Ki at rat apelin receptor-EGFP [1] (setting [5]) worked out at 0.16 ± 0.01 nM; on rat apelin receptor-EGFP [1] (setting [7]), 0.2 nM. In addition, the IC50 on rat apelin receptor-EGFP [2] (setting [6]) stood at 1 ± 0.4 nM.

Values taken from patent US20210206817A1, “Metabolically Stable Apelin Analogs in the Treatment of Disease Mediated by the Apelin Receptor” (priority 2014, published 2021).
